Holding throughout (settings): Compound concentration 1000.0 nM
The target in assay [1] is ALK tyrosine kinase receptor (Homo sapiens) (UniProt Q9UM73).
The target of assay [2] is Megakaryocyte-associated tyrosine-protein kinase (Homo sapiens) (UniProt P42679).
Assay [3] has as its target Ephrin type-A receptor 4 (Homo sapiens) (UniProt P54764).
In assay [4] the target is Receptor tyrosine-protein kinase erbB-4 (Homo sapiens) (UniProt Q15303).
Assay [5] has as its target Cyclin-G-associated kinase (Homo sapiens) (UniProt O14976).
The target in assay [6] is Beta-adrenergic receptor kinase 1 (Homo sapiens) (UniProt P25098).
Beta-adrenergic receptor kinase 1 (Homo sapiens), sequence (P25098 whole entry): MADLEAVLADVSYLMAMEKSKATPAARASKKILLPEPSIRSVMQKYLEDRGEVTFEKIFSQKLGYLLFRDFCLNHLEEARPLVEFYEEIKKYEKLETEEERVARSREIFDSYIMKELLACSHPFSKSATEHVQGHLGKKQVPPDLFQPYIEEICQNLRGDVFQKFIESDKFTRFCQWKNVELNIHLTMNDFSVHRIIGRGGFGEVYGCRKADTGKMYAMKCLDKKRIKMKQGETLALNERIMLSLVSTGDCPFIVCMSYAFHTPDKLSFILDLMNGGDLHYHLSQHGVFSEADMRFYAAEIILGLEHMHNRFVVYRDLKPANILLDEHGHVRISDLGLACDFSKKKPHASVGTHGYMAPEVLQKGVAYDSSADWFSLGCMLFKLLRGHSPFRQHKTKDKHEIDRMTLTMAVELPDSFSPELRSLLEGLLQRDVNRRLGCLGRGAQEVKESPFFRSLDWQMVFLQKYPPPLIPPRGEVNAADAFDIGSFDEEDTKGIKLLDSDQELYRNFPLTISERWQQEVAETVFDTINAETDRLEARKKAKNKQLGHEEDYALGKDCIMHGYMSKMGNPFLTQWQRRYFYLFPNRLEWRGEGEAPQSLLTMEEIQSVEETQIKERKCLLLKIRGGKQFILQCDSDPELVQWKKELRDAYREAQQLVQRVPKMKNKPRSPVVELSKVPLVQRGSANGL
Assay [7] has as its target G protein-coupled receptor kinase 3 (Homo sapiens) (UniProt P35626).
Assay [8] addresses Rhodopsin kinase GRK7 (Homo sapiens) (UniProt Q8WTQ7).
The target of assay [9] is Mitogen-activated protein kinase kinase kinase 2 (Homo sapiens) (UniProt Q9Y2U5).
Assay [10] has as its target Serine/threonine-protein kinase 3 (Homo sapiens) (UniProt Q13188).
Assay [11] deals with Phosphatidylinositol 3-kinase C2 domain-containing subunit gamma (Homo sapiens) (UniProt O75747).
The target of assay [12] is 1-phosphatidylinositol 3-phosphate 5-kinase (Homo sapiens) (UniProt Q9Y2I7).
1-phosphatidylinositol 3-phosphate 5-kinase (Homo sapiens), sequence (Q9Y2I7 whole entry): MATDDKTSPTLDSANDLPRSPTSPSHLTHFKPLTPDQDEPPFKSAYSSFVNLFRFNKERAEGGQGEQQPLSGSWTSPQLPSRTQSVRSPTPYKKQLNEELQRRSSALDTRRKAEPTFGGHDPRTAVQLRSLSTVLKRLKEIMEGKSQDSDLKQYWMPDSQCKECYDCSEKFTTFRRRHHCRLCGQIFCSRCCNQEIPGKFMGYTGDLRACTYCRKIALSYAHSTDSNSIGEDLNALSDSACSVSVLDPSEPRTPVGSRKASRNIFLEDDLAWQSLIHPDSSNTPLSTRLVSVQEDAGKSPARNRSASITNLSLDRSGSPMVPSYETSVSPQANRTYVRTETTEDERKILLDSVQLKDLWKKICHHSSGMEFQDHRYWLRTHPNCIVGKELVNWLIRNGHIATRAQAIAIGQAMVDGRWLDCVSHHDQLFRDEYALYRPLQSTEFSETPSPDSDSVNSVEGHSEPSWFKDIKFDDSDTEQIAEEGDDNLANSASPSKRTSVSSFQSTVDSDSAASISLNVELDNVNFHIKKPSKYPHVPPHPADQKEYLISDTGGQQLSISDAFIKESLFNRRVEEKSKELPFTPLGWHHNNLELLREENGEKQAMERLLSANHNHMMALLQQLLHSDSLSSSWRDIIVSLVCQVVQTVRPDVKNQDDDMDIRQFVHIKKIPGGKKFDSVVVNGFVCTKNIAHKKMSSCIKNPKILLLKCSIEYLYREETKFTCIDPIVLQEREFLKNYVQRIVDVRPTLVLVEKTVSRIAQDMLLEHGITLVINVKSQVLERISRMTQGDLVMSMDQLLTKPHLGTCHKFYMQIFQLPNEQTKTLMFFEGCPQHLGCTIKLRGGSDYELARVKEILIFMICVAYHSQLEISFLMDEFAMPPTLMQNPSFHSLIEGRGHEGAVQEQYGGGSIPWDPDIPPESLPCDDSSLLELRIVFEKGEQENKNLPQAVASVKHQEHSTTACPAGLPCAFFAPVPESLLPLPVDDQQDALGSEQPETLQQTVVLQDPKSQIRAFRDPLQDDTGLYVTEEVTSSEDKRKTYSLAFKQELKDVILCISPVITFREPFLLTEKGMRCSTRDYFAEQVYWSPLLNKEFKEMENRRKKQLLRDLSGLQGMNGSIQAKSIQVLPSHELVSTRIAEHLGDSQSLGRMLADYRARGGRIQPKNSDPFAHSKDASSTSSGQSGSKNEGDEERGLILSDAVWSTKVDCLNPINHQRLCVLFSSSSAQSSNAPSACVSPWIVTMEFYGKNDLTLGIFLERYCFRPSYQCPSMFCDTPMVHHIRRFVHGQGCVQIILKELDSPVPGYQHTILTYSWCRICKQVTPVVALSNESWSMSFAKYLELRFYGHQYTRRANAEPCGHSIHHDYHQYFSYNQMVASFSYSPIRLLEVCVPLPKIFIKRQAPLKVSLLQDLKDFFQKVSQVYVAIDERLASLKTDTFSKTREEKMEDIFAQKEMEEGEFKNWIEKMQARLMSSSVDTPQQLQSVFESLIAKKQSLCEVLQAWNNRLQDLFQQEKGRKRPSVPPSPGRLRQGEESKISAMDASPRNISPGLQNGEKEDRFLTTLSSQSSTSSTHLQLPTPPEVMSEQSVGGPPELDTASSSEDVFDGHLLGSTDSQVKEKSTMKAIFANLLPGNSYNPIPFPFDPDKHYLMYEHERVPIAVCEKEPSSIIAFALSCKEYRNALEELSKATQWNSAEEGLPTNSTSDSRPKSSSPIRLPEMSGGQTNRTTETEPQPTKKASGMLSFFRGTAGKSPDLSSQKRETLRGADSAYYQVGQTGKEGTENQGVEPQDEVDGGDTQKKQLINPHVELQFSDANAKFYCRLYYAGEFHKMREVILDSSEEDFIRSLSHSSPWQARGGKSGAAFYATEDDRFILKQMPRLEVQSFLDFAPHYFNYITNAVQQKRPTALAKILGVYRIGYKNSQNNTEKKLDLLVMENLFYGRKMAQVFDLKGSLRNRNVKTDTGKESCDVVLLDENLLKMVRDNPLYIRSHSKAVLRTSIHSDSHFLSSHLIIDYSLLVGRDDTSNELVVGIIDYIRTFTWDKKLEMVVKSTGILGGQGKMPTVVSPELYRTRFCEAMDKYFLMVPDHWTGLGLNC
Assay [13] relates to Proto-oncogene tyrosine-protein kinase receptor Ret (Homo sapiens), P07949 [M918T].
Assay [14] deals with Serine/threonine-protein kinase RIO1 (Homo sapiens) (UniProt Q9BRS2).
Assay [15] addresses Serine/threonine-protein kinase RIO2 (Homo sapiens) (UniProt Q9BVS4).
Assay [16] deals with Ribosomal protein S6 kinase alpha-5 (Homo sapiens) (UniProt O75582).
The target in assay [17] is Serine/threonine-protein kinase SBK1 (Homo sapiens) (UniProt Q52WX2).
Serine/threonine-protein kinase SBK1 (Homo sapiens), sequence (Q52WX2 whole entry): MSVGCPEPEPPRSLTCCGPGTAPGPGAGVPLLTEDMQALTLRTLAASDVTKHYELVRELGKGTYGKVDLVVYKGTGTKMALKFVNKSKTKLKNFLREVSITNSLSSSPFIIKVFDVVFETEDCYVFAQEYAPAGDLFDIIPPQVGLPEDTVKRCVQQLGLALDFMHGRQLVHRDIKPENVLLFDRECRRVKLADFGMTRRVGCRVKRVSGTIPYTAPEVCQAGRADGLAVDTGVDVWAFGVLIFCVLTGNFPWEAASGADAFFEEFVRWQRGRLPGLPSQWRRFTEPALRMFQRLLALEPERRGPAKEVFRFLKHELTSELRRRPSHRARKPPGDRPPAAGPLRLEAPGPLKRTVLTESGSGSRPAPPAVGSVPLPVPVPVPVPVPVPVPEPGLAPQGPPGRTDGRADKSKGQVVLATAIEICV
For assay [18], the target named is Tyrosine-protein kinase receptor TYRO3 (Homo sapiens) (UniProt Q06418).
Tyrosine-protein kinase receptor TYRO3 (Homo sapiens), sequence (Q06418 whole entry): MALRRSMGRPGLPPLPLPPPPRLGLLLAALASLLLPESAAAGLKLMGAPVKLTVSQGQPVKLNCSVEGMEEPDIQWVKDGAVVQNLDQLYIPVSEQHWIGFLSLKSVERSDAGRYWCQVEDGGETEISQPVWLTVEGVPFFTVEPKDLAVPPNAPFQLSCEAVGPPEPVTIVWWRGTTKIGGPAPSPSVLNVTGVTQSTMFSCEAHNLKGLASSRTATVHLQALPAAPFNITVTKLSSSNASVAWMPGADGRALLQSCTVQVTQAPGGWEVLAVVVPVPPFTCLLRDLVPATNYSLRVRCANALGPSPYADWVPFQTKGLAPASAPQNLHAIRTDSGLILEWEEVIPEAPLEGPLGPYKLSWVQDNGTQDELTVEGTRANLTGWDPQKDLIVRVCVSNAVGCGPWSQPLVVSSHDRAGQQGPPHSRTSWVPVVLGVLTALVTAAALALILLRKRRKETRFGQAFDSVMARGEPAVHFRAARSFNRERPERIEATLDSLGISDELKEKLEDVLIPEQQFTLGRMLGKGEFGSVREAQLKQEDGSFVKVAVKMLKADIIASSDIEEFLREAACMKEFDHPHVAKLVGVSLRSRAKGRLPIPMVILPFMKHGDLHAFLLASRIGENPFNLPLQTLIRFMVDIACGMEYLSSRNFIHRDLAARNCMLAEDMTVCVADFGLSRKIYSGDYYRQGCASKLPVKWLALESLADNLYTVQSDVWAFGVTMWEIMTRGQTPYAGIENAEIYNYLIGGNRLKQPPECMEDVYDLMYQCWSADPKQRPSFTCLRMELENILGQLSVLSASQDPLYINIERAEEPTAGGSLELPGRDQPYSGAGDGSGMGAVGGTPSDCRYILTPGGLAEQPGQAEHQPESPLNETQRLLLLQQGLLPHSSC

Ephrin type-A receptor 4 (Homo sapiens), sequence (P54764 whole entry): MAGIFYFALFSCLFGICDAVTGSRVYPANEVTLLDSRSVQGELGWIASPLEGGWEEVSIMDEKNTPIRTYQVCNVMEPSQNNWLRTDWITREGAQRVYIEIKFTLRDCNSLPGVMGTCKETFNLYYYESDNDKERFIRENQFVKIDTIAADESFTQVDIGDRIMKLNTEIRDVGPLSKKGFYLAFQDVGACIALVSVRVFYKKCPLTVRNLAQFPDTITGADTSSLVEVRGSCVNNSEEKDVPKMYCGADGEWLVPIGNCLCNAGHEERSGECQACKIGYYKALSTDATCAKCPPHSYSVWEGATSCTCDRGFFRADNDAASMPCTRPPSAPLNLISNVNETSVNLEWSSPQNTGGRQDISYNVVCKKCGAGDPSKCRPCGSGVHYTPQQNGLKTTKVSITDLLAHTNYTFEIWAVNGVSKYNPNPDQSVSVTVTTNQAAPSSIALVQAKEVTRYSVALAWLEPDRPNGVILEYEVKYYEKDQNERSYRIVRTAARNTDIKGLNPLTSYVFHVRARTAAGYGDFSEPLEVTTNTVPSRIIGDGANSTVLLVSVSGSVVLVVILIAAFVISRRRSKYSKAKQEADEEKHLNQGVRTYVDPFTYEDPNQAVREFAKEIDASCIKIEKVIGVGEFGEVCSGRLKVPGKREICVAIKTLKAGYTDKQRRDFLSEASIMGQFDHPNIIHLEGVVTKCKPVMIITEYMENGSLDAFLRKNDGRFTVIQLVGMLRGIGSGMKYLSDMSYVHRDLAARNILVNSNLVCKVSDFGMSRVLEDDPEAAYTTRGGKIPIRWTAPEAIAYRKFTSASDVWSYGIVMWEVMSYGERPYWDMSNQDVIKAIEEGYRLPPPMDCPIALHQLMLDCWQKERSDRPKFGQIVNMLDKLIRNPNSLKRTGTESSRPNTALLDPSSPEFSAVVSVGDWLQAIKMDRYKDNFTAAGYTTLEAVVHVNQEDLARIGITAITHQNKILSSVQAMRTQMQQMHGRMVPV

For the compound `Cc1nc(N2CC[C@@H](O)C2)ncc1-c1cc(C(F)(F)F)cc2[nH]ncc12` [TP-004], the residual activity in assay [1] was 81%; in assay [2] it was 86%; in assay [3], 100%; in assay [4], 87%; in assay [5] it was 83%; in [6], 42%. In addition, the residual activity in assay [7] was 87%; in assay [8], 70%; in assay [9] it was 60%; in [10] it was 80%; in assay [11] it was 90%; in [12] it was 88%. For the same compound, the residual activity in assay [13] is 100%; in assay [14], 100%; in assay [15], 100%; in [16] it was 81%; in assay [17], 82%; in assay [18], 66%.

(Values after ChEMBL document CHEMBL4507303, “Data for DCP probe TP-004” (2021).)
